# Laboratory results published in ChEMBL document CHEMBL1134023, “The discovery of RFI-641 as a potent and selective inhibitor of the respiratory syncytial virus” (Bioorg Med Chem Lett, 2001).
# How the values were obtained:
# [1] = Inhibitory concentration required against HSV-1 (Herpes simplex virus) by using HSV-1 in ELISA assay; type: functional
# Human orthopneumovirus = experiment: In vitro inhibitory concentration against HRSV (Human respiratory syncytial virus) by using RSV A2 and the assay is by ELISA; type: functional, organism-based
# Human betaherpesvirus 5 = experiment: Inhibitory concentration required against HCMV (Human cytomegalovirus) by using HCMV AD169 and assay is via an indicator gene in the virus; type: functional, organism-based
# [2] = system: Respiratory syncytial virus; experiment: In vitro inhibitory activity against respiratory syncytial virus (RSV); type: functional, organism-based; details: human respiratory syncytial virus
smiles,measurement,setting,value
NC(=O)CCCN(CCCC(N)=O)S(=O)(=O)c1cccc(Nc2nc(Nc3cccc(S(=O)(=O)N(CCCC(N)=O)CCCC(N)=O)c3)nc(Nc3ccc(-c4ccc(Nc5nc(Nc6cccc(S(=O)(=O)N(CCCC(N)=O)CCCC(N)=O)c6)nc(Nc6cccc(S(=O)(=O)N(CCCC(N)=O)CCCC(N)=O)c6)n5)cc4S(=O)(=O)O)c(S(=O)(=O)O)c3)n2)c1,IC50,[1],8.5 µM
same,IC50,Human orthopneumovirus,100 nM
same,IC50,Human betaherpesvirus 5,5800 nM
NC(=O)CNS(=O)(=O)c1cccc(Nc2nc(Nc3cccc(S(=O)(=O)NCC(N)=O)c3)nc(Nc3ccc(-c4ccc(Nc5nc(Nc6cccc(S(=O)(=O)NCC(N)=O)c6)nc(Nc6cccc(S(=O)(=O)NCC(N)=O)c6)n5)cc4S(=O)(=O)O)c(S(=O)(=O)O)c3)n2)c1,IC50,[1],> 25 µM
same,IC50,Human orthopneumovirus,270 nM
same,IC50,Human betaherpesvirus 5,1370 nM
NC(=O)CN(CC(N)=O)S(=O)(=O)c1cccc(Nc2nc(Nc3cccc(S(=O)(=O)N(CC(N)=O)CC(N)=O)c3)nc(Nc3ccc(-c4ccc(Nc5nc(Nc6cccc(S(=O)(=O)N(CC(N)=O)CC(N)=O)c6)nc(Nc6cccc(S(=O)(=O)N(CC(N)=O)CC(N)=O)c6)n5)cc4S(=O)(=O)O)c(S(=O)(=O)O)c3)n2)c1 [RF-1461],IC50,[1],7.7 µM
same,IC50,Human orthopneumovirus,50 nM
same,IC50,Human betaherpesvirus 5,2550 nM
NC(=O)CCN(CCC(N)=O)S(=O)(=O)c1cccc(Nc2nc(Nc3cccc(S(=O)(=O)N(CCC(N)=O)CCC(N)=O)c3)nc(Nc3ccc(-c4ccc(Nc5nc(Nc6cccc(S(=O)(=O)N(CCC(N)=O)CCC(N)=O)c6)nc(Nc6cccc(S(=O)(=O)N(CCC(N)=O)CCC(N)=O)c6)n5)cc4S(=O)(=O)O)c(S(=O)(=O)O)c3)n2)c1,IC50,[1],19.5 µM
same,IC50,Human orthopneumovirus,80 nM
same,IC50,Human betaherpesvirus 5,13900 nM
same,IC50,[2],50 nM
NC(=O)CCNS(=O)(=O)c1cccc(Nc2nc(Nc3cccc(S(=O)(=O)NCCC(N)=O)c3)nc(Nc3ccc(-c4ccc(Nc5nc(Nc6cccc(S(=O)(=O)NCCC(N)=O)c6)nc(Nc6cccc(S(=O)(=O)NCCC(N)=O)c6)n5)cc4S(=O)(=O)O)c(S(=O)(=O)O)c3)n2)c1,IC50,[1],23.2 µM
same,IC50,Human orthopneumovirus,660 nM
same,IC50,Human betaherpesvirus 5,2640 nM
NC(=O)CCN(CCC(N)=O)S(=O)(=O)c1cccc(Nc2nc(Nc3cccc(S(=O)(=O)N(CCC(N)=O)CCC(N)=O)c3)nc(Nc3ccc(/C=C/c4ccc(Nc5nc(Nc6cccc(S(=O)(=O)N(CCC(N)=O)CCC(N)=O)c6)nc(Nc6cccc(S(=O)(=O)N(CCC(N)=O)CCC(N)=O)c6)n5)cc4S(=O)(=O)O)c(S(=O)(=O)O)c3)n2)c1,IC50,[2],150 nM
